For one assay, the target named is T1, cyclooxygenase (COX) (Ovis aries, UniProt P05979).
T1 construct: purchased Cayman 700200
T1 sequence (P05979 25-600): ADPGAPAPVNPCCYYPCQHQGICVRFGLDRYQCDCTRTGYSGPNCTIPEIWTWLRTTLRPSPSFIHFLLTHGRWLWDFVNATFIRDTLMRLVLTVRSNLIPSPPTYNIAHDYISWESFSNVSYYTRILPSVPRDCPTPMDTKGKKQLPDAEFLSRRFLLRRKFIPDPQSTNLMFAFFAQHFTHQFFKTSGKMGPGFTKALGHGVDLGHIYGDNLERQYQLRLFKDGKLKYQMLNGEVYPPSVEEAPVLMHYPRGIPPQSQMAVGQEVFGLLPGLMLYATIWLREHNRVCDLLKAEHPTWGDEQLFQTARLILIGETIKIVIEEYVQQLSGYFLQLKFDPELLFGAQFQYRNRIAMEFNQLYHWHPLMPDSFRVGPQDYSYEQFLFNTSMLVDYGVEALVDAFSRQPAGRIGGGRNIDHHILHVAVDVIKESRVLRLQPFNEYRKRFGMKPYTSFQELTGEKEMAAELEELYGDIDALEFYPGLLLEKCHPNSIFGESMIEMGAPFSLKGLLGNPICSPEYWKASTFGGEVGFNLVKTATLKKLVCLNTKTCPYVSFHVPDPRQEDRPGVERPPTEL
Description: Cyclooxygenase inhibitory assay (fluorescence COX activity kit). The format is biochemical. The conditions noted are these: purified COX preparation, 50 µM, positive control.

Assay [1] is described as follows: Photochemiluminescence (PCL-ACL) antioxidant assay. The note with it: 0.1 mg/mL; Trolox equivalents per g of sample. The method, then: Photochemiluminescence assay, based on the methodology of Popov and Lewin [35], was performed to measure the antioxidant activity of cortisone, SCA and SCB compounds against superoxide anion radicals generated from luminol, a photosensitizer, when exposed to UV light at λmax = 351 nm. The antioxidant activity of compounds was measured using ACL kits (Analytic Jena, Jena, Germany) with a Photochem apparatus (Analytic Jena, Jena, Germany). In the PCL-ACL assay, the photochemical generation of free radicals is combined with the sensitive detection using chemiluminescence. In ACL studies, the kinetic light emission curve was monitored for 3 min and expressed as mM Trolox equivalents. The areas under the curves were calculated using the PCL soft control and analysis software. […] The observed inhibition of the signal was plotted against the concentration of Trolox added to the assay medium. The concentration of the added sample was such that the generated luminescence during the 3 min sampling interval fell within the limits of the standard curve. For ACL assay, 2.3 mL of reagent 1 (solvent and dilution reagent, methanol), 0.2 mL of reagent 2 (buffer solution), 25 μL of reagent 3 (photosensitizer: luminol 1 mmol L^−1), and 10 μL of standard or sample solution were mixed and measured. Luminol is used as a photosensitizer and as a detecting substance for free radicals. Trolox were used for the standard calibration curve from […].

Assay [2] relates to p65 NF-κB nuclear translocation in HaCaT cells. Put plainly: TNFα-induced p65 NF-κB nuclear translocation, immunofluorescence. The assay is classed as cell-based. The conditions noted are these: positive control (betamethasone-17-valerate 10 µg/mL), then 10 ng/mL TNFα 1 h. The method, then:
HaCaT cells were cultured with Dulbecco’s modified Eagle’s medium High Glucose (Lonza, Milan, Italy) supplemented with 10% FBS, 100 U/mL penicillin, 100 μg/mL streptomycin and 2 mM L-glutamine as previously described. Cells were maintained in a humidified incubator at 37 °C with 5% CO2 and incubated until the monolayer was 80% confluent. Medium was changed every 2 days.
HaCaT cells were pretreated with or without 10 μM of both SCA and SCB for 24 h. Stock solutions of the two compounds were prepared in DMSO immediately before use and diluted to the final concentration in the culture medium. In some sets of experiments, betamethasone-17-valerate (10 µg/mL) served as a positive control; dimethyl sulfoxide (DMSO) served as a solvent control. After the pretreatments, cells were stimulated with 10 ng/mL TNFα for 1 h to induce the NFκB signaling pathway. Then, media were replaced with fresh culture medium. Cells and supernatants were collected at different time points for each set of experiments as described below.
Briefly, HaCaT cells were seeded on coverslips at a density of 1 × 10^5 cell/mL and incubated with DMEM high glucose supplemented with FBS 10%. Then, HaCaT cells were treated as indicated above. At the end of the proinflammatory stimulus with TNFα, cells were fixed in 4% paraformaldehyde in PBS for 30 min at 4 °C as previously described. HaCaT cells were permeabilized for 5 min at RT with PBS containing 0.2% Triton X-100. After the blocking with 1% BSA in PBS at RT for 1 h, HaCaT cells were incubated with p65 NF-κB primary antibody (1:100, sc-372; Santa Cruz Biotechnology, Inc., Dallas, Texas, USA) in PBS containing 0.5% BSA at 4 °C overnight. After washing, coverslips were incubated with appropriate secondary antibody for 1 h at RT. Nuclei were stained with 1 μg/mL DAPI (Sigma- Aldrich, Italy) for 1 min. […] Fluorescence was examined using an Epifluorescence microscope (Nikon Eclipse E800; Nikon Corporation, Surrey, UK) equipped with a plan apochromat 100 × 0.5 − 1.3 oil immersion objective and a mercury lamp source.

Description for cyclooxygenase (COX): Cyclooxygenase (COX) activity assay was determined by using a fluorescence COX activity assay kit (Cayman, No. 700200) for detecting COX-1 and COX-2 activity in purified enzyme and tissue homogenate preparations. The assay was conducted by monitoring the appearance of fluorescent compound resofurin in accordance to the supplier recommendation. Aspirin (acetylsalicylic acid; 50 µM) served as positive control. The test compounds were dissolved in 1–2% DMSO (v/v) at 4 different concentrations (0.1, 1, 10 and 100 µM) and added to a purified COX preparation. A 1–2% DMSO solution was added to control plates. The plates were shaken for a few seconds and incubated for 5 min at 25 °C. The fluorescence was measured by using an excitation wavelength of 540 nm and an emission wavelength of 590 nm. Average fluorescent values were calculated for all the samples (n = 3/group) in order to determine the percentage of inhibition in respect to control (i.e. untreated) plates.

In the case of `CC(=O)Oc1ccccc1C(=O)O` [aspirin, acetylsalicylic acid, reference compound], at cyclooxygenase (COX), the “effect on COX activity” value is given as “strongly inhibited”.

On to `C[C@]12CCC(=O)C=C1CC[C@@H]1[C@@H]2C(=O)C[C@@]2(C)[C@H]1CC[C@]2(O)C(=O)CO` [cortisone], for which the “antioxidant capacity, PCL-ACL assay” value in assay [1] amounted to 0.13 µmol/g. Turning to `C[C@H]1C[C@H]2[C@@H]3CCC4=CC(=O)C=C[C@]4(C)[C@@]3(F)[C@@H](O)C[C@]2(C)[C@@]1(O)C(=O)CO` [betamethasone, reference compound], the “effect on TNFα-mediated p65 activation” value in assay [2] was “only partly prevented”.
